Results from patent US20260132115A1, “SUBSTITUTED 3-FLUOROBENZENEPROPANOATE COMPOUND AND PREPARATION METHOD THEREFOR, PHARMACEUTICAL COMPOSITION THEREOF, AND USE THEREOF” (TIANJIN GUDUI BIO-PHARM CO., LTD., priority 2022, published 2026).
Where two headings read alike, the source gives them in different places.

What was measured:
[1] = test system: Dry Yeast-Induced Rat Fever Models; test: Antipyretic effect on dry yeast-induced fever in rats; type: in vivo, SD rats; conditions: rectal temperature, 10 mg/kg intraperitoneal, 20 min before 20% dry yeast s.c.
Protocol: Experimental method: Male SD rats, aged 4 weeks, were randomly grouped, with 10 rats in each group. […] The rats were intraperitoneally injected with saline, the compounds of the present disclosure or the control drug flurbiprofen respectively, all of which were administered at a dose of 10 mg/kg and a dosing volume of 10 μL/g. At 20 min after administration, 20% active dry yeast suspension was injected subcutaneously. After modeling, the rectal temperatures were measured at 4 h and 8 h.

[2] = test system: λ-Carrageenan-Induced Rat Toe Swelling; test: Anti-inflammatory effect on λ-carrageenan-induced rat toe swelling; type: in vivo, SD rats; conditions: Rattus norvegicus, ip, 10 mg/kg intraperitoneal, 1 h before 1% λ-carrageenan
Protocol: Experimental method: Male SD rats weighing 150-160 g were randomly grouped, with 10 rats in each group. The rats were intraperitoneally injected with saline, the compounds of the present disclosure, and the control drug flurbiprofen or flurbiprofen axetil respectively, all of which were administered at a dose of 10 mg/kg and a dosing volume of 10 μL/g. At 1 h after administration, 100 μL of 1% λ-carrageenan was injected into the right hind toe of each rat to induce inflammation. Afterwards, the paw volume was measured every 1 h using a paw volume meter to calculate the swelling inhibition rate.

[3] = test system: H460; test: Antitumor potency, MTT method, H460; type: cell-based; conditions: Homo sapiens, NCI-H460, 72 h incubation
Protocol: (§1) Experimental method: The antitumor potency was tested by the MTT method. Tumor cells at the logarithmic phase were collected. The concentration of the cell suspension was adjusted. 100 μL of the cell suspension was added to each well. Cell plating was carried out and the cell density was adjusted to 1000 to 10000/well (the marginal wells were filled with sterile PBS). The cells were incubated at 5% CO2 and 37° C. until the cells adhered to the wall (96-well flat-bottomed plate). Drugs of different concentration gradients were added, 100 μL per well. Four replicates were set up. Under the conditions of 5% CO2 and 37° C., the cells were incubated for 72 h and observed under an inverted microscope. The prepared MTT solution (5 mg/mL) was added to the 96-well plate, 20 μL per well, mixed well, and incubated for 4 h under the conditions of 37° C. and 5% CO2. Afterwards, the liquid in the plate was discarded. 150 μL of DMSO was added to each well and oscillated for 3 min on a microplate reader. The OD value (optical density) was detected at 490 nm.
(§2) The inhibition rate of the drug against the tumor cell growth was calculated according to the following formula: […]

[4] = test system: U87; test: Antitumor potency, MTT method, U87; type: cell-based; conditions: Homo sapiens, U-87 MG, 72 h incubation
Protocol: as §1, §2

[5] = test system: NUGC-4; test: Antitumor potency, MTT method, NUGC-4; type: cell-based; conditions: Homo sapiens, 72 h incubation
Protocol: as §1, §2

[6] = test system: Eca-109; test: Antitumor potency, MTT method, Eca-109; type: cell-based; conditions: Homo sapiens, 72 h incubation
Protocol: as §1, §2

[7] = test system: rats with CIA; test: Analgesic and anti-inflammatory effects on collagen-induced rheumatoid arthritis (CIA) in rats; type: in vivo, Lewis rats; conditions: for paw volume effect as compared to the flurbiprofen group: left hind limb, 14-day intervention, 10 mg/kg (FIG. 3); for MWT effect as compared to the flurbiprofen group: left lower limb, 13-day intervention, 10 mg/kg (FIG. 4)
Protocol: Experimental method: Female Lewis rats, aged 6-8 weeks, were randomly grouped, with 8 rats in each group. Under the ambient temperature of 20.5° C. to 24.5° C. and the humidity of 40% to 70%, the light period was 12-h bright and 12-h dark. Type II collagen was mixed with Freund's incomplete adjuvant (IFA) at a ratio of 1:1 and fully emulsified on ice before use. 100 μL of the mixed solution was injected intradermally at the part 2 to 3 cm from the base of the rat tail, and 50 μL of the mixed solution was injected into the bases of both hind limbs separately. The rats in the blank control group were injected with an equal volume of saline. IFA was used for re-immunization 7 days later. […] Rats with a total score of more than 2 on both hind limbs were selected and randomly divided into a model group, a flurbiprofen group, a compound 33 group, a compound 2 group, a compound 13 group, a compound 20 group, and a compound 35 group according to the body weight, score and paw volume, and furthermore a blank control group was set up, with 8 rats in each group. The dosing […] was […], and the dosing time was 14 days. A corresponding volume of solvent was administered in the model group and the blank control group.
Test indicators: body weight, arthritis score, hind limb paw volume, and mechanical foot threshold (MWT).
Standard for arthritis score: 0=normal; 1=erythema and slight swelling observed at the ankle joint; 2=erythema and slight swelling observed from the ankle joint to the metatarsal joint or the metacarpal joint; 3=erythema and moderate swelling observed from the ankle joint to the metatarsophalangeal joint or the metacarpal joint; 4=erythema and severe swelling observed from the ankle joint to the metatarsal joint; the total score of all (four) paws was calculated, and the sum of the arthritis indices was up to 16 per rat.

[8] = In vivo pharmacokinetic assay in rats (gavage, plasma); conditions: female, Sprague Dawley, po, prototype drug in rat plasma, dose equimolar to 50 mg/kg flurbiprofen; for half-life: read-out: Prototype Drug t1/2 (converted)
Protocol: Experimental method: Adult female Sprague Dawley rats, aged 8-10 weeks and weighing 200±20 g, were randomly grouped, with 3 rats in each group. Rats in each of the groups were administered by gavage at a dose of 50 mg/kg of flurbiprofen and an equimolar dose of other example compounds to 50 mg/kg of flurbiprofen, respectively. After gavage administration, blood was collected at 0.0833 […], and 24 h into sodium heparin anticoagulant tubes, respectively. The blood was collected by the following method: 250 μL of blood were collected from the orbital venous plexuses of the rats. After blood collection, the blood samples were centrifuged at 12000 rpm in a centrifuge for 5 min. All plasma was aspirated into a 1.5-mL centrifuge tube, and the plasma was stored in a refrigerator at -80° C. The pharmacokinetic parameters were determined by the external standard curve method. Sample processing: after the cryopreserved samples were removed and restored to room temperature, the samples were vortexed evenly and then diluted two folds with methanol; the sample solution was diluted 5 folds by adding a mixed extractant of 0.5% formic acid-containing acetonitrile:methanol=7:3, and subjected to vortex oscillation for 1 min. Subsequently, the resultant was centrifuged at 4° C. and 12000 rpm for 10 min, and then 5 μL of the supernatant was measured for assay. The pharmacokinetic parameters in the Examples were calculated using the Winnonlin software.

[9] = test system: MM.1S; test: Antitumor potency, MTT method, MM.1S; type: cell-based; conditions: Homo sapiens, MM1.S, 72 h incubation
Protocol: as §1, §2

[10] = test system: U251; test: Antitumor potency, MTT method, U251; type: cell-based; conditions: Homo sapiens, U-251, 72 h incubation
Protocol: as §1, §2

[11] = 6 h, read-out: Toe Swelling Inhibition Rate at 6 h
[12] = 24 h, read-out: Toe Swelling Inhibition Rate at 24 h

IC50 [3] | IC50 [4] | IC50 [5] | IC50 [6] | AUC [8] | Cmax [8] | half-life [8] | IC50 [9] | IC50 [10] | SMILES | Temp. at 4 h After Dosing [1] | Temp. at 8 h After Dosing [1] | inhibition in vivo at 10 mg/kg [2, 11] | inhibition in vivo at 10 mg/kg [2, 12] | paw volume effect as compared to the flurbiprofen group [7] | MWT effect as compared to the flurbiprofen group [7]
90 µM | > 100 µM | 60 µM | 55.7 µM | 183 ± 85.9 ng·h/mL | 27.1 ± 7.2 ng/mL | 14 ± 9.88 h | 41.7 µM | > 100 µM | CC(C(=O)OCOC(=O)N1CCOCC1)c1ccc(-c2ccccc2)c(F)c1 (stereo not drawn) [Compound 2] | 37.10 ± 0.17 °C | 37.32 ± 0.27 °C | 42.9% | 34.1% | better effects | slightly better or better effects
> 100 µM | > 100 µM | > 100 µM | > 100 µM | 8.75 ± 1.53 ng·h/mL | 1.56 ± 0.509 ng/mL | 9.08 ± 1.44 h | > 100 µM | > 100 µM | Cc1cc(CO)c(O)c(COC(=O)C(C)c2ccc(-c3ccccc3)c(F)c2)c1 (stereo not drawn) [Compound 33] | 37.18 ± 0.18 °C | 37.27 ± 0.28 °C | 55.5% | 35.8% | better effects | slightly better or better effects
32.6 µM | 60.3 µM | 41.8 µM | 29.6 µM |  |  |  | 45.7 µM | 7.33 µM | CC(C(=O)OCOC(=O)c1ccc(O)cc1)c1ccc(-c2ccccc2)c(F)c1 (stereo not drawn) [Compound 35] | 37.15 ± 0.21 °C | 37.29 ± 0.30 °C | 54.6% | 49.8% | better effects | slightly better or better effects
